# Molecular target: T1, MLLT1 (Homo sapiens, UniProt Q03111)
# T1 construct: endogenous in cells; host or cells: MV4-11 (ATCC CRL-9591)
# T1 sequence (Q03111 1-559): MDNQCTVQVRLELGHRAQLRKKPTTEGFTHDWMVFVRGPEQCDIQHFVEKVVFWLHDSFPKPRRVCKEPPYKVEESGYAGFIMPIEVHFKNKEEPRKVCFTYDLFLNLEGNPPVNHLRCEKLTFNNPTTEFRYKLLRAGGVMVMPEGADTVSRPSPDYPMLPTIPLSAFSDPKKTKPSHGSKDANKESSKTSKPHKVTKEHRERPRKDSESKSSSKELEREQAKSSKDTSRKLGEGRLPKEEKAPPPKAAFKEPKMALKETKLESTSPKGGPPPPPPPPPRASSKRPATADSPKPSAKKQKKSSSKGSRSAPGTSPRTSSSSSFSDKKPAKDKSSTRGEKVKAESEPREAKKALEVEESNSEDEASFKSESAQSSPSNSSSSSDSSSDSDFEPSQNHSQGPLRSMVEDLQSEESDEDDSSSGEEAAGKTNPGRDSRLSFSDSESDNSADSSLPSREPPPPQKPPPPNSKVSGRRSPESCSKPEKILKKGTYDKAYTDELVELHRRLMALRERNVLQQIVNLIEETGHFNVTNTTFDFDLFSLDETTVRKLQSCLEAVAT
# Test: MLLT1 Degradation Assay (JESS automated chemiluminescent detection, MV4-11 cells)
# Format: cell-based
# Details: 24h, with respect to DMSO control; for MLLT1 % Degradation @ 0.01 µM: 0.01 µM (10 nM) test compound; for MLLT1 % Degradation @ 0.1 µM: 0.1 µM (100 nM) test compound; for MLLT 1 % Degradation @ 1 µM: 1 µM (1000 nM) test compound
# Summary of the method: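 MV4-11 cells were treated for 24 h at 37 °C, 5% CO2 with compound at 1000, 100 and 10 nM (0.1% DMSO). MLLT1 was quantified by automated capillary chemiluminescent immunodetection (JESS). Band peak areas were expressed as % degradation relative to DMSO control.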
SMILES,MLLT1 % Degradation @ 0.01 µM,MLLT1 % Degradation @ 0.1 µM,MLLT 1 % Degradation @ 1 µM
"CN1CCC[C@@H]1c1cc2cnc(NC(=O)CCCC3CCN(c4cccc5c4C(=O)N(C4CCC(=O)NC4=O)C5=O)CC3)cc2[nH]1 (stereo partly drawn) [Example 41, 4-(1-(2-(2,6-dioxopiperidin-3-yl)-1,3-dioxoisoindolin-4-yl)piperidin-4-yl)-N-(2-((R)-1-methylpyrrolidin-2-yl)-1H-pyrrolo[3,2-c]pyridin-6-yl)butanamide]",B (Category B: 50% ≤ B < 75% degradation),B (Category B: 50% ≤ B < 75% degradation),A (Category A: A ≥ 75% degradation)
"CN1CCC[C@@H]1c1cc2cnc(NC(=O)CCCCC3CCN(c4cccc5c4C(=O)N(C4CCC(=O)NC4=O)C5=O)CC3)cc2[nH]1 (stereo partly drawn) [Example 42, 5-(1-(2-(2,6-Dioxopiperidin-3-yl)-1,3-dioxoisoindolin-4-yl)piperidin-4-yl)-N-(2-((R)-1-methylpyrrolidin-2-yl)-1H-pyrrolo[3,2-c]pyridin-6-yl)pentanamide]",,B (Category B: 50% ≤ B < 75% degradation),B (Category B: 50% ≤ B < 75% degradation)
"CN1CCC[C@@H]1c1cc2cnc(NC(=O)CCCCCC3CCN(c4cccc5c4C(=O)N(C4CCC(=O)NC4=O)C5=O)CC3)cc2[nH]1 (stereo partly drawn) [Example 43, 6-(1-(2-(2,6-dioxopiperidin-3-yl)-1,3-dioxoisoindolin-4-yl)piperidin-4-yl)-N-(2-((R)-1-methylpyrrolidin-2-yl)-1H-pyrrolo[3,2-c]pyridin-6-yl)hexanamide]",,A (Category A: A ≥ 75% degradation),B (Category B: 50% ≤ B < 75% degradation)
"CN1CCC[C@@H]1c1cc2cnc(NC(=O)CCCC3CCCN(c4cccc5c4C(=O)N(C4CCC(=O)NC4=O)C5=O)C3)cc2[nH]1 (stereo partly drawn) [Example 44, 4-(1-(2-(2,6-dioxopiperidin-3-yl)-1,3-dioxoisoindolin-4-yl)piperidin-3-yl)-N-(2-((R)-1-methylpyrrolidin-2-yl)-1H-pyrrolo[3,2-c]pyridin-6-yl)butanamide]",,C (Category C: 25% ≤ C < 50% degradation),C (Category C: 25% ≤ C < 50% degradation)
"CN1CCC[C@@H]1c1cc2cnc(NC(=O)c3cccc(CCCNc4cccc5c4C(=O)N(C4CCC(=O)NC4=O)C5=O)c3)cc2[nH]1 (stereo partly drawn) [Example 45, 3-(3-((2-(2,6-dioxopiperidin-3-yl)-1,3-dioxoisoindolin-4-yl)amino)propyl)-N-(2-((R)-1-methylpyrrolidin-2-yl)-1H-pyrrolo[3,2-c]pyridin-6-yl)benzamide]",A (Category A: A ≥ 75% degradation),A (Category A: A ≥ 75% degradation),A (Category A: A ≥ 75% degradation)
"CN1CCC[C@@H]1c1cc2cnc(NC(=O)c3ccc(CCC#Cc4cccc5c4CN(C4CCC(=O)NC4=O)C5=O)cn3)cc2[nH]1 (stereo partly drawn) [Example 49, 5-(4-(2-(2,6-dioxopiperidin-3-yl)-1-oxoisoindolin-4-yl)but-3-yn-1-yl)-N-(2-((R)-1-methylpyrrolidin-2-yl)-1H-pyrrolo[3,2-c]pyridin-6-yl)picolinamide]",D (Category D: D < 25% degradation),D (Category D: D < 25% degradation),C (Category C: 25% ≤ C < 50% degradation)
"CN1CCCC1c1cc2cnc(NC(=O)c3ccc(OCC#Cc4cccc5c4CN(C4CCC(=O)NC4=O)C5=O)cn3)cc2[nH]1 (stereo not drawn) [Example 50, 5-[3-[2-(2,6-dioxo-3-piperidyl)-1-oxo-isoindolin-4-yl]prop-2-ynoxy]-N-[2-(1-methylpyrrolidin-2-yl)-1H-pyrrolo[3,2-c]pyridin-6-yl]pyridine-2-carboxamide]",B (Category B: 50% ≤ B < 75% degradation),B (Category B: 50% ≤ B < 75% degradation),B (Category B: 50% ≤ B < 75% degradation)
"CN1CCC[C@@H]1c1cc2cnc(NC(=O)c3ccc(OCC#Cc4cccc5c4CN(C4CCC(=O)NC4=O)C5=O)cc3)cc2[nH]1 (stereo partly drawn) [Example 51, 4-((3-(2-(2,6-dioxopiperidin-3-yl)-1-oxoisoindolin-4-yl)prop-2-yn-1-yl)oxy)-N-(2-((R)-1-methylpyrrolidin-2-yl)-1H-pyrrolo[3,2-c]pyridin-6-yl)benzamide]",A (Category A: A ≥ 75% degradation),A (Category A: A ≥ 75% degradation),A (Category A: A ≥ 75% degradation)
"CN1CCC[C@@H]1c1cc2cnc(NC(=O)c3ccc(CCC#Cc4cccc5c4CN(C4CCC(=O)NC4=O)C5=O)cc3)cc2[nH]1 (stereo partly drawn) [Example 52, 4-(4-(2-(2,6-dioxopiperidin-3-yl)-1-oxoisoindolin-4-yl)but-3-yn-1-yl)-N-(2-((R)-1-methylpyrrolidin-2-yl)-1H-pyrrolo[3,2-c]pyridin-6-yl)benzamide]",A (Category A: A ≥ 75% degradation),A (Category A: A ≥ 75% degradation),B (Category B: 50% ≤ B < 75% degradation)
"CN1CCC[C@@H]1c1cc2cnc(NC(=O)c3ccc(CCC#Cc4cccc5c4n(C)c(=O)n5C4CCC(=O)NC4=O)cc3)cc2[nH]1 (stereo partly drawn) [Example 53, 4-(4-(1-(2,6-dioxopiperidin-3-yl)-3-methyl-2-oxo-2,3-dihydro-1H-benzo[d]imidazol-4-yl)but-3-yn-1-yl)-N-(2-((R)-1-methylpyrrolidin-2-yl)-1H-pyrrolo[3,2-c]pyridin-6-yl)benzamide]",A (Category A: A ≥ 75% degradation),A (Category A: A ≥ 75% degradation),B (Category B: 50% ≤ B < 75% degradation)
"CN1CCC[C@@H]1c1cc2cnc(NC(=O)c3ccc(CCC#Cc4cccc5c4CN(C4CCC(=O)NC4=O)C5=O)cc3F)cc2[nH]1 (stereo partly drawn) [Example 54, 4-(4-(2-(2,6-dioxopiperidin-3-yl)-1-oxoisoindolin-4-yl)but-3-yn-1-yl)-2-fluoro-N-(2-((R)-1-methylpyrrolidin-2-yl)-1H-pyrrolo [3,2-c]pyridin-6-yl) benzamide]",A (Category A: A ≥ 75% degradation),A (Category A: A ≥ 75% degradation),B (Category B: 50% ≤ B < 75% degradation)
"CN1CCC[C@@H]1c1cc2cnc(NC(=O)c3ccc(CCCC#Cc4cccc5c4CN(C4CCC(=O)NC4=O)C5=O)cc3)cc2[nH]1 (stereo partly drawn) [Example 55, 4-(5-(2-(2,6-dioxopiperidin-3-yl)-1-oxoisoindolin-4-yl)pent-4-yn-1-yl)-N-(2-((R)-1-methylpyrrolidin-2-yl)-1H-pyrrolo[3,2-c]pyridin-6-yl)benzamide]",A (Category A: A ≥ 75% degradation),A (Category A: A ≥ 75% degradation),A (Category A: A ≥ 75% degradation)
"CN1CCC[C@@H]1c1cc2cnc(NC(=O)c3ccc(OCCCC#Cc4cccc5c4CN(C4CCC(=O)NC4=O)C5=O)cc3)cc2[nH]1 (stereo partly drawn) [Example 56, 4-((5-(2-(2,6-dioxopiperidin-3-yl)-1-oxoisoindolin-4-yl)pent-4-yn-1-yl)oxy)-N-(2-((R)-1-methylpyrrolidin-2-yl)-1H-pyrrolo[3,2-c]pyridin-6-yl)benzamide]",A (Category A: A ≥ 75% degradation),A (Category A: A ≥ 75% degradation),A (Category A: A ≥ 75% degradation)
"CN1CCC[C@@H]1c1cc2cnc(NC(=O)c3ccc(OCC#Cc4cccc5c4CN(C4CCC(=O)NC4=O)C5=O)cc3F)cc2[nH]1 (stereo partly drawn) [Example 57, 4-((3-(2-(2,6-dioxopiperidin-3-yl)-1-oxoisoindolin-4-yl)prop-2-yn-1-yl)oxy)-2-fluoro-N-(2-((R)-1-methylpyrrolidin-2-yl)-1H-pyrrolo[3,2-c]pyridin-6-yl)benzamide]",A (Category A: A ≥ 75% degradation),A (Category A: A ≥ 75% degradation),A (Category A: A ≥ 75% degradation)
"CN1CCC[C@@H]1c1cc2cnc(NC(=O)c3cccc(OCC#Cc4cccc5c4CN(C4CCC(=O)NC4=O)C5=O)c3)cc2[nH]1 (stereo partly drawn) [Example 58, 3-((3-(2-(2,6-dioxopiperidin-3-yl)-1-oxoisoindolin-4-yl)prop-2-yn-1-yl)oxy)-N-(2-((R)-1-methylpyrrolidin-2-yl)-1H-pyrrolo[3,2-c]pyridin-6-yl)benzamide]",B (Category B: 50% ≤ B < 75% degradation),A (Category A: A ≥ 75% degradation),C (Category C: 25% ≤ C < 50% degradation)
"CN1CCC[C@@H]1c1cc2cnc(NC(=O)c3ccc(-c4cnn(CCCCC#Cc5cccc6c5CN(C5CCC(=O)NC5=O)C6=O)c4)cc3)cc2[nH]1 (stereo partly drawn) [Example 59, 4-(1-(6-(2-(2,6-dioxopiperidin-3-yl)-1-oxoisoindolin-4-yl)hex-5-yn-1-yl)-1H-pyrazol-4-yl)-N-(2-((R)-1-methylpyrrolidin-2-yl)-1H-pyrrolo[3,2-c]pyridin-6-yl)benzamide]",A (Category A: A ≥ 75% degradation),A (Category A: A ≥ 75% degradation),B (Category B: 50% ≤ B < 75% degradation)
